Reference: ChEMBL document CHEMBL4130452, “Design of Selective Benzoxazepin PI3Kδ Inhibitors Through Control of Dihedral Angles” (ACS Med Chem Lett, 2017)

What was measured:
[1] = target: T1, Phosphatidylinositol 4,5-bisphosphate 3-kinase catalytic subunit delta isoform (Homo sapiens, UniProt O00329); test: Binding affinity to PI3Kdelta (unknown origin); details: read-out: Ki(app)
T1 sequence (O00329 whole entry): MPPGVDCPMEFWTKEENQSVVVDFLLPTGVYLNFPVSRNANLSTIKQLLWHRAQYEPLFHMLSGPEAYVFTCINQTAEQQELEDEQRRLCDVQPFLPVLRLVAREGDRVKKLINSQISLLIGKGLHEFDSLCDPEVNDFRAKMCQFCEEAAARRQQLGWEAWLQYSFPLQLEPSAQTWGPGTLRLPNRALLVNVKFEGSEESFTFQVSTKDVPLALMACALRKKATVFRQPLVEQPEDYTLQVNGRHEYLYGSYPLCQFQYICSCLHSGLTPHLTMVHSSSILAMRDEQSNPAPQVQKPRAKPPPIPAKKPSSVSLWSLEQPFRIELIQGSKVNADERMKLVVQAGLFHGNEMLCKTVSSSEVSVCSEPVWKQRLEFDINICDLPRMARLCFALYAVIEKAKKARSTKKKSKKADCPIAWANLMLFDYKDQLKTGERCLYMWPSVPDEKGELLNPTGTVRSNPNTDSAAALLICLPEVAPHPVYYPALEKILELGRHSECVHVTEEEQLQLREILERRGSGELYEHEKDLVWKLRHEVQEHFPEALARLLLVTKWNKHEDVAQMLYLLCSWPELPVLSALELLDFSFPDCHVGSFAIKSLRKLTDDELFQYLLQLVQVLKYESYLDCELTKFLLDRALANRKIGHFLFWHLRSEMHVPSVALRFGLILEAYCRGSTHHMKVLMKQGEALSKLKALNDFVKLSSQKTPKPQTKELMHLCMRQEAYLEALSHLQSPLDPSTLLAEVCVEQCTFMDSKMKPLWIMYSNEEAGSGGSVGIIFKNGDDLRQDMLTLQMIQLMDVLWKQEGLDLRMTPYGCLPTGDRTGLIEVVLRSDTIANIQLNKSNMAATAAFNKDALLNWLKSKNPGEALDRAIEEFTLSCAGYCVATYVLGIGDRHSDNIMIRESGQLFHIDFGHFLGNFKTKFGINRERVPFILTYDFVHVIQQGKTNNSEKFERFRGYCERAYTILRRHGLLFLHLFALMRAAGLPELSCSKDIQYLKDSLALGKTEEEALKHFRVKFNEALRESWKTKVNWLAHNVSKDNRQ

[2] = Stability in human liver microsomes at 1 uM in presence of NADPH by LC-MS/MS analysis; format: ADME, microsome; details: read-out: Stability
[3] = Apparent permeability from apical to basolateral side in MDCKI cells at 10 uM after 2 hrs; format: ADME, cell-based, Canis lupus familiaris; details: dog, MDCK
[4] = target: T1, Phosphatidylinositol 4,5-bisphosphate 3-kinase catalytic subunit delta isoform; test: Inhibition of PI3Kdelta in human whole blood assessed as suppression of CD69 expression

SMILES | Ki [1] [nM] | CLhep predicted at 1 µM [2] [mL/min/kg] | Papp A→B at 2 h, 10 µM [3] [×10⁻⁶ cm/s] | IC50 [4] [nM]
CC(C)n1ncnc1-c1cn2c(n1)-c1cc(S(=O)(=O)N3CCN(C(C)(C)C)CC3)ccc1OCC2 | 1.2 | 20 | – | –
CC(C)n1ncnc1-c1cn2c(n1)-c1cc([S@@+]([O-])C3CCN(C(C)(C)C)CC3)ccc1OCC2 | 0.81 | 17 | – | –
Cc1nc(-c2cn3c(n2)-c2cc([C@H](C)N4CCN(C(C)(C)C)CC4)ncc2OCC3)n(C(C)C)n1 | 1.9 | < 3.9 | 10 | 28
Cc1nc(-c2cn3c(n2)-c2cc([C@@H](C)N4CCN(C(C)(C)C)CC4)ncc2OCC3)n(C(C)C)n1 | 2.8 | – | – | –
Cc1nc(-c2cn3c(n2)-c2cc([C@@H](C)N4CCN(C(C)(C)C)CC4)c(F)cc2OCC3)n(C(C)C)n1 | 0.78 | 15 | 13.6 | 15
CC(C)n1ncnc1-c1cn2c(n1)-c1cc([S@+]([O-])C3CCN(C(C)(C)C)CC3)ccc1OCC2 | 12 | 12 | – | –
Cc1nc(-c2cn3c(n2)-c2cc([C@@H](C)N4CCN(C(C)(C)C)CC4)c(C)cc2OCC3)n(C(C)C)n1 | – | 8.4 | 14.2 | –
CC(C)n1ncnc1-c1cn2c(n1)-c1cc(CN3CCC(C(C)(C)O)CC3)ccc1OCC2 | 20 | 6.8 | – | –
CC(C)n1ncnc1-c1cn2c(n1)-c1cc(C(=O)N3CCN(C(C)(C)C)CC3)ccc1OCC2 | 1.7 | 14 | – | –
Cc1nc(-c2cn3c(n2)-c2cc([C@H](C)N4CCN(C(C)(C)C)CC4)c(F)cc2OCC3)n(C(C)C)n1 | 2.4 | – | – | –
CC(C)n1ncnc1-c1cn2c(n1)-c1cc(CN3CCN(C(C)(C)C)CC3)ccc1OCC2 | 2.5 | 9.7 | – | –
